Test: Determination of bio-accumulation: urinary clearance pharmacokinetic study in rats
Format: in vivo, male Sprague Dawley rats
Details: 73 micro Moles per kg body weight, oral gavage; for T½ (renal half-life): exponential least squares curve fitting of urine concentration (fluorine NMR); for % Recovery (96 h): parent compound in urine up to 96 h; for Compound-related Effects: clinical signs, gross necropsy at 96 hours post-dose
Excerpt: Animals we observed throughout the study for clinical signs of toxicity.

| Compound | T½ (renal half-life) | % Recovery (96 h) | Compound-related Effects |
| --- | --- | --- | --- |
| N.O=C(O)C(F)(F)C(F)(F)OC(F)(F)F [Compound 1, CF3—O—CF2—CF2—COONH4] | 11 h | 100% | – |
| N.O=C(O)C(F)(F)C(F)(F)OC(F)(F)C(F)(F)F [Compound 2, C2F5—O—CF2—CF2—COONH4] | 10 h | 100% | – |
| N.O=C(O)C(F)(F)C(F)(F)OC(F)(F)C(F)(F)C(F)(F)F [Compound 3, C3F7—O—CF2—CF2—COONH4] | 12 h | 82% | – |
| N.O=C(O)C(F)(F)C(F)(F)OC(F)(F)C(F)(F)C(F)(F)C(F)(F)F [Compound 4, C4F9—O—CF2—CF2—COONH4] | 31 h | 42% | Hepatomegaly |
| N.O=C(O)C(F)(F)C(F)(F)C(F)(F)C(F)(F)C(F)(F)C(F)(F)C(F)(F)F [Compound C-1, C7F15COONH4, reference compound] | ~550 h | 6% | Hepatomegaly |
